Measured values published in US5789434A, “Derivatives of substituted 4-biarylbutyric acid as matrix metalloprotease inhibitors” (priority 1995, dated 1998).

Experiments:
Format in all cases: biochemical
MMP-3 = biological target: T1, MMP-3 (Homo sapiens, UniProt P08254); experiment: Automated MMP Profiling Assay, MMP-3 fluorogenic; conditions: for IC50: 96-well automated, P218
T1 construct: Truncated Prostromelysin-257 was expressed in a soluble form in E.coli; made in house; host or cells: E. coli
T1 sequence (P08254 100-274 limits assumed): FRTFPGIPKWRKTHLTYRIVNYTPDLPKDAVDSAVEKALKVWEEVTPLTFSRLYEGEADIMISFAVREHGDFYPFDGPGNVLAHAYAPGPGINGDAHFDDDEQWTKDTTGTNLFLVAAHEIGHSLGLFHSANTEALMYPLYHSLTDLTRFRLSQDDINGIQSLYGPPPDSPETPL
Text: This assay with each invention compound was run with the three enzymes MMP-3, MMP-9 and MMP-2 in parallel as adapted for a 96-well microtitre plate using a Hamilton A® workstation.

MMP-9 = biological target: T2, MMP-9 (Homo sapiens, UniProt P14780); experiment: Automated MMP Profiling Assay, MMP-9 fluorogenic; conditions: for IC50: 96-well automated, P218
T2 construct: from tissue; host or cells: human polymorphonuclear leukocytes (PMN) from whole blood (New York Blood Center), PMA-stimulated supernatant
T2 sequence (P14780 107-707 limits assumed): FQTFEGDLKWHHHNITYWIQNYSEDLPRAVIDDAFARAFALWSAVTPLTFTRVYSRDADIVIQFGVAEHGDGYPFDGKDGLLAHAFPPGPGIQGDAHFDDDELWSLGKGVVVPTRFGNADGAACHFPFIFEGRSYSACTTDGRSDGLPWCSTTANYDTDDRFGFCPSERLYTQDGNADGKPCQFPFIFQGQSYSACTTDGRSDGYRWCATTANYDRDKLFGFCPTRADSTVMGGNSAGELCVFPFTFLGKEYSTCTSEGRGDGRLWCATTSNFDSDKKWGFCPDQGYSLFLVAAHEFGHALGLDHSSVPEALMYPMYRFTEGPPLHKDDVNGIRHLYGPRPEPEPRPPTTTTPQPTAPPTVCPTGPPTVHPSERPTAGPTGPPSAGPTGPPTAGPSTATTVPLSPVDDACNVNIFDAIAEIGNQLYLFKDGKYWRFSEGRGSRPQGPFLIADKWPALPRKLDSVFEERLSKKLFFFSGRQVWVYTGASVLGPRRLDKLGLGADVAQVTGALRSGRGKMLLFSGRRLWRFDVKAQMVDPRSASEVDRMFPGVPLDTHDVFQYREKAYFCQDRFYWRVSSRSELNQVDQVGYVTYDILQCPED
Protocol: Briefly, polymorphonuclear leukocytes (PMN) preparations were isolated as described above from 3 or more units of freshly drawn whole blood obtained from the New York Blood Center (New York, N.Y.). Cells were resuspended in phosphate buffered saline (PBS) containing 100 ng/ml phorbol myristate acetate (PMA) in the presence of 50 mM diisopropylfluorophospate (DFP), 1 μg/ml leupeptin and aprotinin, and 1 mg/ml catalase for 1 hr at 37° C. Supernatants were collected by centrifugation (300×g) and the samples were frozen at -70° C. All chromatographic methods were performed at 4° C. Thawed samples were concentrated 5-fold using an Amicon chamber equipped with a YM-10 membrane. The concentrate was pressure dialyzed against 0.02M Tris-HCl, 0.1M NaCl, 1 mM CaCl2, 1 μM ZnCl2, 0.001% Brij-35, 0.02% sodium azide (NaN3), pH 7.5 and applied to DEAE ion exchange chromatography resin which was previously equilibrated with the same buffer at a flow rate of 0.4 ml/min. The column was extensively washed with the same buffer and gelatinase was eluted as 4 ml fractions from the column with 0.02M Tris-HCl, 0.5M NaCl, 1 mM CaCl2, 1 μM ZnCl2, 0.001% Brij-35, 0.02% NaN3, pH 7.5. Gelatinase containing fractions were observed by gelatin zymography (see below), loaded onto a gelatin agarose affinity resin and washed with the same buffer. Gelatinase activity was eluted at a flow rate of 1 ml/min from the column as 1 ml fractions with 0.02M Tris-HCl, 1M NaCl, 1 mM CaCl2, 1 μM ZnCl2, 0.001% Brij-35, 0.02% NaN3, pH 7.5 containing 10% dimethyl sulfoxide (DMSO). The fractions containing gelatinase activity were pooled and dialyzed against 0.005M Tris-HCl, 5 mM NaCl, 0.5 mM CaCl2, 0.1 μM ZnCl2, 0.001% Brij-35, pH 7.4. The protein content associated with material was determined with a micro-BCA assay (Pierce, Rockford, Ill.), lyophilized and reconstituted to a desired working concentration (100 μg/ml).
This assay was run with a protocol analogous to that reported for MMP-3 inhibition using the synthetic peptide P218 and each of the three enzymes and measuring quenched fluorescence. This assay with each invention compound was run with the three enzymes MMP-3, MMP-9 and MMP-2 in parallel as adapted for a 96-well microtitre plate using a Hamilton A® workstation.

MMP-2 = biological target: T3, MMP-2 (Homo sapiens, UniProt P08253); experiment: Automated MMP Profiling Assay, MMP-2 fluorogenic; conditions: 96-well automated, P218; read-out: MMP-2 Fluorogenic IC50 (profiling)
T3 sequence (P08253 110-660): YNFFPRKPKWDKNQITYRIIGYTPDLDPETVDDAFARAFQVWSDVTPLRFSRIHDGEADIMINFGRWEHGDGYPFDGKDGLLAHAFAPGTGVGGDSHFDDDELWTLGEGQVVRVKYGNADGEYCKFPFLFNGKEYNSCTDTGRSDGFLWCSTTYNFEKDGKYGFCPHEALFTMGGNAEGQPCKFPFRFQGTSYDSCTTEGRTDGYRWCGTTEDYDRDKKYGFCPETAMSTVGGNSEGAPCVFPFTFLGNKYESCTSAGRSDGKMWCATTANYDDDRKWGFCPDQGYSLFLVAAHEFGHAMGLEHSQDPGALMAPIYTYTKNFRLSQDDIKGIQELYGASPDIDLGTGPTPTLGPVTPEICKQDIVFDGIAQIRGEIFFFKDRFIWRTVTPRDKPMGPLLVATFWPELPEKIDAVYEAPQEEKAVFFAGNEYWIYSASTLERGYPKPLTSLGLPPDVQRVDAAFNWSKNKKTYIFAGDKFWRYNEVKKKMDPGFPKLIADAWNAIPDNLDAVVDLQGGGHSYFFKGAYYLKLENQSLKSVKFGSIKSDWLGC

O=C(O)[C@H]1[C@H](CN2C(=O)c3cc4ccccc4cc3C2=O)CC[C@@H]1C(=O)c1ccc(-c2ccc(Cl)cc2)cc1 (relative stereo) [Example 387, Cyclopentanecarboxylic acid, 2-[(4'-chloro[1,1'-biphenyl]-4-yl)carbonyl]-5-[(1,3-dihydro-1,3-dioxo-2H-benz[.function.]isoindol-2-yl)methyl]-, (1α,2β,5β)-]
IC50 (MMP-3): 9.4 nM
IC50 (MMP-9): 2 nM
IC50 (MMP-2): 4.9 nM

O=C(O)[C@H]1[C@H](COc2ccc(Cl)cc2)CC[C@@H]1C(=O)c1ccc(-c2ccc(Cl)cc2)cc1 (relative stereo) [Example 388, Cyclopentanecarboxylic acid, 2-[(4'-chloro[1,1'-biphenyl]-4-yl)carbonyl]-5-[(4-chlorophenoxy)methyl]-, (1α,2β,5β)-]
IC50 (MMP-3): 105 nM
IC50 (MMP-9): 467 nM
IC50 (MMP-2): 30 nM

O=C(O)[C@H]1[C@H](CON2C(=O)c3ccccc3C2=O)CC[C@@H]1C(=O)c1ccc(-c2ccc(Cl)cc2)cc1 (relative stereo) [Example 389, Cyclopentanecarboxylic acid, 2-[(4'-chloro[1,1'-biphenyl]-4-yl)carbonyl]-5-[[(1,3-dihydro-1,3-dioxo-2H-isoindol-2-yl)oxy]methyl]-, (1α,2β,5β)-]
IC50 (MMP-3): 15 nM
IC50 (MMP-9): 23 nM
IC50 (MMP-2): 6.3 nM

O=C(O)[C@H]1[C@H](CN2C(=O)c3cc(Cl)c([N+](=O)[O-])cc3C2=O)CC[C@@H]1C(=O)c1ccc(-c2ccc(Cl)cc2)cc1 (relative stereo) [Example 390, Cyclopentanecarboxylic acid, 2-[(4'-chloro[1,1'-biphenyl]-4-yl)carbonyl]-5-[(5-chloro-1,3-dihydro-6-nitro-1,3-dioxo-2H-isoindol-2-yl)methyl]-, (1α,2β,5β)-]
IC50 (MMP-3): 10 nM
IC50 (MMP-9): 1.2 nM
IC50 (MMP-2): 15 nM

O=C(O)[C@H]1[C@H](CN2C(=O)c3cc(Cl)c(Cl)cc3C2=O)CC[C@@H]1C(=O)c1ccc(-c2ccc(Cl)cc2)cc1 (relative stereo) [Example 391, Cyclopentanecarboxylic acid, 2-[(4'-chloro[1,1'-biphenyl]-4-yl)carbonyl]-5-[(5,6-dichloro-1,3-dihydro-1,3-dioxo-2H-isoindol-2-yl)methyl]-, (1α,2β,5β)-]
IC50 (MMP-3): 19 nM
IC50 (MMP-9): 4.2 nM
IC50 (MMP-2): 14 nM

CC(=O)O[C@H]1C[C@@H](C(=O)c2ccc(-c3ccc(Cl)cc3)cc2)[C@H]1C(=O)O (relative stereo) [Example 393, Cyclobutanecarboxylic acid, 2-(acetyloxy)-4-[(4'-chloro[1,1'-biphenyl]-4-yl)carbonyl]-, (1α,2α,4α)-]
inhibition at 5 µM (MMP-3): 18%
inhibition at 5 µM (MMP-9): 38%
IC50 (MMP-2): 2000 nM

CC(=O)O[C@@H]1C[C@@H](C(=O)c2ccc(-c3ccc(Cl)cc3)cc2)[C@H]1C(=O)O (relative stereo) [Example 394, Cyclobutanecarboxylic acid, 2-(acetyloxy)-4-[(4'-chloro[1,1'-biphenyl]-4-yl)carbonyl]-, (1α,2β,4α)-]
inhibition at 5 µM (MMP-3): 26%
inhibition at 5 µM (MMP-9): 15%
IC50 (MMP-2): 2000 nM

CC(=O)O[C@H]1C[C@H](C(=O)c2ccc(-c3ccc(Cl)cc3)cc2)[C@H]1C(=O)O (relative stereo) [Example 395, Cyclobutanecarboxylic acid, 2-(acetyloxy)-4-[(4'-chloro[1,1'-biphenyl]-4-yl)carbonyl]-, (1α,2α,4β)-]
IC50 (MMP-3): 2200 nM
inhibition at 5 µM (MMP-9): 44%
IC50 (MMP-2): 560 nM

CC(=O)O[C@@H]1C[C@H](C(=O)c2ccc(-c3ccc(Cl)cc3)cc2)[C@H]1C(=O)O (relative stereo) [Example 396, Cyclobutanecarboxylic acid, 2-(acetyloxy)-4-[(4'-chloro[1,1'-biphenyl]-4-yl)carbonyl]-, (1α,2β,4β)-]
IC50 (MMP-3): 779 nM
IC50 (MMP-9): 2290 nM
IC50 (MMP-2): 362 nM
